Test results taken from PubChem BioAssay AID248 (DTP/NCI, 2004).
“And” between values parts separate entries of the source, which are not always exact repeats. Equal entries are not always repeated. Inconclusive results and toxic doses are left out. Cut-off read from the data, not from the text of the source: active = T/C of 150% or more; inactive = T/C below 125%.

Test system: L1210 leukemia ip in BDF1 mice, survival T/C
Assay: NCI In Vivo Anticancer Drug Screen. Data for tumor model L1210 Leukemia (intraperitoneal) in B6D2F1 (BDF1) mice
Conditions: endpoint: mean survival time, higher = longer survival
Method in brief: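 Tumor was transplanted into mice, which were then dosed with test compound or vehicle alone. Survival was recorded for each group, and the treated figure was expressed relative to the control figure.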

[1] = dose: 50.0 mg/kg/injection, schedule: Q01DX009 (ip), vehicle: Klucel (hydroxypropylcellulose) (HPC)
[2] = dose: 100.0 mg/kg/injection, schedule: Q01DX009 (ip), vehicle: Klucel (hydroxypropylcellulose) (HPC)
[3] = dose: 100.0 mg/kg/injection, schedule: Q04DX003 (ip), vehicle: Klucel (hydroxypropylcellulose) (HPC)
[4] = dose: 200.0 mg/kg/injection, schedule: Q01DX009 (ip), vehicle: Klucel (hydroxypropylcellulose) (HPC)
[5] = dose: 200.0 mg/kg/injection, schedule: Q04DX003 (ip), vehicle: Klucel (hydroxypropylcellulose) (HPC)
[6] = dose: 400.0 mg/kg/injection, schedule: Q04DX003 (ip), vehicle: Klucel (hydroxypropylcellulose) (HPC)
[7] = dose: 100.0 mg/kg/injection, schedule: Q04DX002 (ip), vehicle: Klucel (hydroxypropylcellulose) (HPC)
[8] = dose: 200.0 mg/kg/injection, schedule: Q04DX002 (ip), vehicle: Klucel (hydroxypropylcellulose) (HPC)
[9] = dose: 400.0 mg/kg/injection, schedule: Q04DX002 (ip), vehicle: Klucel (hydroxypropylcellulose) (HPC)
[10] = dose: 100.0 mg/kg/injection, schedule: Q01DX001 (ip), vehicle: carboxymethylcellulose (CMC)
[11] = dose: 200.0 mg/kg/injection, schedule: Q01DX001 (ip), vehicle: carboxymethylcellulose (CMC)
[12] = dose: 100.0 mg/kg/injection, schedule: Q04DX003 (ip), vehicle: saline
[13] = dose: 200.0 mg/kg/injection, schedule: Q04DX003 (ip), vehicle: saline
[14] = dose: 100.0 mg/kg/injection, schedule: Q01DX009 (ip), vehicle: saline
[15] = dose: 100.0 mg/kg/injection, schedule: Q01DX001 (ip), vehicle: saline
[16] = dose: 200.0 mg/kg/injection, schedule: Q01DX001 (ip), vehicle: saline
[17] = dose: 200.0 mg/kg/injection, schedule: Q01DX009 (ip), vehicle: saline
[18] = dose: 400.0 mg/kg/injection, schedule: Q01DX001 (ip), vehicle: saline
[19] = dose: 100.0 mg/kg/injection, schedule: Q01DX009 (ip), vehicle: saline with Tween-80
[20] = dose: 100.0 mg/kg/injection, schedule: Q04DX003 (ip), vehicle: saline with Tween-80
[21] = dose: 200.0 mg/kg/injection, schedule: Q01DX009 (ip), vehicle: saline with Tween-80
[22] = dose: 200.0 mg/kg/injection, schedule: Q04DX003 (ip), vehicle: saline with Tween-80
[23] = dose: 400.0 mg/kg/injection, schedule: Q01DX009 (ip), vehicle: saline with Tween-80
[24] = dose: 400.0 mg/kg/injection, schedule: Q04DX003 (ip), vehicle: saline with Tween-80
[25] = dose: 12.5 mg/kg/injection, schedule: Q04DX002 (ip), vehicle: Klucel (hydroxypropylcellulose) (HPC)
[26] = dose: 25.0 mg/kg/injection, schedule: Q04DX002 (ip), vehicle: Klucel (hydroxypropylcellulose) (HPC)

Measured: T/C

CC(=O)NN(c1ccccc1)c1ccccc1
inactive: [1] 98 % of control | [2] 104 % of control | [3] 93 % of control | [4] 96 % of control | [5] 86 % of control | [6] 91 % of control

Cc1c(C)c(C)c(CC2(C)CSC2)c(CC2(C)CSC2)c1C
inactive: [7] 100 % of control | [8] 91 % of control | [9] 94 % of control

CNC(=Nc1ccc(NC(=O)NC(=O)c2ccc(C(=O)NC(=O)Nc3ccc(N=C(NC)c4ccccc4)cc3)cc2)cc1)c1ccccc1
inactive: dose: 62.0 mg/kg/injection, schedule: Q01DX Z (ip), vehicle: carboxymethylcellulose (CMC) 88 % of control | dose: 125.0 mg/kg/injection, schedule: Q01DX Z (ip), vehicle: carboxymethylcellulose (CMC) 104 % of control | dose: 250.0 mg/kg/injection, schedule: Q01DX Z (ip), vehicle: carboxymethylcellulose (CMC) 92 % of control | dose: 500.0 mg/kg/injection, schedule: Q01DX Z (ip), vehicle: carboxymethylcellulose (CMC) 95 % of control

CCOc1ccc(Br)cc1C1N(Cc2ccccc2OC)CCCN1Cc1ccccc1OC
inactive: [10] 100 % of control | [11] 92 % of control | dose: 400.0 mg/kg/injection, schedule: Q01DX001 (ip), vehicle: carboxymethylcellulose (CMC) 94 % of control

N=C(N)Cc1ccc(CCc2ccc(CC(=N)N)cc2)cc1
inactive: dose: 12.5 mg/kg/injection, schedule: Q01DX Z (oral), vehicle: saline 97 % of control | dose: 25.0 mg/kg/injection, schedule: Q01DX Z (oral), vehicle: saline 100 % of control | dose: 50.0 mg/kg/injection, schedule: Q01DX Z (oral), vehicle: saline 97 % of control | dose: 100.0 mg/kg/injection, schedule: Q01DX Z (oral), vehicle: saline 100 % of control

CN(C)CCCC#N
inactive: [12] 97 % of control | [13] 95 % of control

C1CCN(NC2=NCCO2)CC1
inactive: [14] 95 % of control

CCCCCCCCSC(C)(C)C
inactive: [12] 102 % of control | [13] 101 % of control | dose: 400.0 mg/kg/injection, schedule: Q04DX003 (ip), vehicle: saline 93 % of control

COc1cc(C(=O)N2CCN(Cc3ccccc3)CC2)cc(OC)c1OC
inactive: [3] 93 % of control | [5] 107 % of control | [6] 93 % of control

CCC[CH2][Pb]([Cl])([Cl])[CH2]CCC
inactive: dose: 5.0 mg/kg/injection, schedule: Q01DX001 (ip), vehicle: carboxymethylcellulose (CMC) 95 % of control | dose: 20.0 mg/kg/injection, schedule: Q01DX001 (ip), vehicle: carboxymethylcellulose (CMC) 108 % of control | dose: 40.0 mg/kg/injection, schedule: Q01DX001 (ip), vehicle: carboxymethylcellulose (CMC) 97 % of control | [10] 103 % of control

C#CC[N+](C)(C)CC#C
inactive: dose: 50.0 mg/kg/injection, schedule: Q04DX003 (ip), vehicle: saline 102 % of control | [12] 94 % of control | [13] 93 % of control

CCCCCCCCCCCCCCCCCC(=O)Oc1c(C(C)CC)cc([N+](=O)[O-])cc1[N+](=O)[O-] (stereo unspecified)
inactive: [7] 89 % of control | [8] 86 % of control | [9] 105 % of control

CN(C)c1ncnc2[nH]cc([N+](=O)[O-])c12
inactive: [10] 93 % of control | [11] 93 % of control

O=C(CS(=O)(=O)Cc1ccccc1)N1CCOCC1
inactive: [15] 95 % of control | [16] 93 % of control | [17] 89 % of control | [18] 93 % of control | dose: 400.0 mg/kg/injection, schedule: Q01DX009 (ip), vehicle: saline 102 % of control

CN(CCO)/N=N/c1nc[nH]c1C#N
inactive: dose: 100.0 mg/kg/injection, schedule: Q01DX001 (ip), vehicle: other 98 % of control | [19] 103 % of control | [20] 102 % of control | dose: 200.0 mg/kg/injection, schedule: Q01DX001 (ip), vehicle: other 100 % of control | [21] 103 % of control | [22] 107 % of control | dose: 400.0 mg/kg/injection, schedule: Q01DX001 (ip), vehicle: other 94 % of control | [23] 113 % of control | [24] 102 % of control

O=C1CCC(=O)N1C1C=CC=CC=C1
inactive: [20] 98 % of control | [22] 97 % of control | [24] 96 % of control

OCCNC(c1ccc(Cl)cc1)C(O)c1ccc(Cl)cc1 (stereo unspecified)
inactive: dose: 50.0 mg/kg/injection, schedule: Q01DX001 (ip), vehicle: saline 98 % of control | [15] 98 % of control | [16] 98 % of control

CC1=CC(=O)C=CC1(C)C(Cl)(Cl)Cl (stereo unspecified)
inactive: [2] 95 % of control | dose: 100.0 mg/kg/injection, schedule: Q04DX003 (ip), vehicle: other 100 % of control | [4] 91 % of control | dose: 200.0 mg/kg/injection, schedule: Q04DX003 (ip), vehicle: other 94 % of control | dose: 400.0 mg/kg/injection, schedule: Q04DX003 (ip), vehicle: other 101 % of control

CCCCCCCCNC1=C(OC)C(=O)C(NCCCCCCCC)=C(OC)C1=O
inactive: [2] 98 % of control | [3] 96 % of control | [4] 104 % of control | [5] 91 % of control | dose: 400.0 mg/kg/injection, schedule: Q01DX009 (ip), vehicle: Klucel (hydroxypropylcellulose) (HPC) 98 % of control | [6] 88 % of control

CCC(=O)OCc1cc2ccccc2c(-c2c(OC(=O)CC)c(COC(=O)CC)cc3ccccc23)c1OC(=O)CC
inactive: dose: 100.0 mg/kg/injection, schedule: Q01DX001 (ip), vehicle: saline with Tween-80 106 % of control | dose: 200.0 mg/kg/injection, schedule: Q01DX001 (ip), vehicle: saline with Tween-80 113 % of control | dose: 400.0 mg/kg/injection, schedule: Q01DX001 (ip), vehicle: saline with Tween-80 88 % of control

O=S(=O)(O)SCNCNCCSCc1ccccc1
inactive: [25] 91 % of control | [26] 112 % of control | dose: 50.0 mg/kg/injection, schedule: Q04DX002 (ip), vehicle: Klucel (hydroxypropylcellulose) (HPC) 91 % of control

N#CC(C#N)=C1C(=O)c2ccccc2-c2ccccc21
inactive: [15] 107 % of control | [16] 109 % of control | [18] 105 % of control

O=S(=O)(c1cc(Cl)c(O)c(Cl)c1)c1cc(Cl)c(O)c(Cl)c1
inactive: dose: 25.0 mg/kg/injection, schedule: Q01DX009 (ip), vehicle: Klucel (hydroxypropylcellulose) (HPC) 92 % of control | [1] 96 % of control | [2] 95 % of control and 109 % of control

C1CCC(C2CC2)CC1
inactive: dose: 50.0 mg/kg/injection, schedule: Q01DX009 (ip), vehicle: saline 97 % of control | [14] 94 % of control | [17] 94 % of control

CSc1ccc(NS(=O)(=O)CCNC(=O)C(O)C(C)(C)CO)cc1 (stereo unspecified)
inactive: [19] 100 % of control | [20] 104 % of control | [21] 103 % of control | [22] 96 % of control | [23] 92 % of control | [24] 109 % of control

CCN(CC)C(=O)C1CC=CCC1 (stereo unspecified)
inactive: dose: 100.0 mg/kg/injection, schedule: Q04DX002 (ip), vehicle: saline 96 % of control | dose: 200.0 mg/kg/injection, schedule: Q04DX002 (ip), vehicle: saline 107 % of control | dose: 400.0 mg/kg/injection, schedule: Q04DX002 (ip), vehicle: saline 93 % of control

CC1(C)C2CCC1(C)C(N=C(N)CSS(=O)(=O)O)C2 (stereo unspecified)
inactive: [25] 112 % of control | dose: 25.0 mg/kg/injection, schedule: Q01DX001 (ip), vehicle: Klucel (hydroxypropylcellulose) (HPC) 101 % of control | [26] 98 % of control | dose: 50.0 mg/kg/injection, schedule: Q01DX001 (ip), vehicle: Klucel (hydroxypropylcellulose) (HPC) 98 % of control | dose: 100.0 mg/kg/injection, schedule: Q01DX001 (ip), vehicle: Klucel (hydroxypropylcellulose) (HPC) 87 % of control
